The values below come from patent publication US20250135028A1, “TUNABLE POLYMERIC NANOPARTICLES FOR TARGETED AND SUSTAINED DELIVERY OF GLYCOPEPTIDE ANTIBIOTICS” (Insmed Incorporated, priority 2021, published 2025).

Molecules are shown by their SMILES.

A short description of data set [1]: Drug loading and encapsulation efficiency of drug loaded PNPs comprising pGlu(0.6C10) (HPLC). In kind it is physicochemical. To be noted: 2.5 mg drug. The text has this: To assess the ability of pGlu(0.6C10) to load positively charged antibiotics in the form of PNPs, we selected vancomycin, oritavancin, RV40 and RV94 as the drug payload. Vancomycin was chosen as a non-lipoglycopeptide control and the other three payloads were lipoglycopeptides. The polymers we used for loading and encapsulating the antibiotics were PLA(10K)-PEG(2K) (A) obtained from Nanosoft Polymers (Winston-Salem, NC, USA; SKU: 2693), pGlu (D) also obtained from Nanosoft Polymers (SKU: 10069), and pGlu(0.6C10) (E) (FIG. 4).
We prepared the drug loaded PNPs by using 10 mg of polymers and 2.5 mg of drug (FIG. 4). Specifically, polymers (10 mg) and drug (2.5 mg) were dissolved in 1.2 ml organic solvent mixture (DMSO: acetonitrile=0.5:0.7). The solution was injected into 10 ml deionized water stirred with a magnetic stirring bar. 1.1 ml 10×PBS solution was added to suspend nanoparticles in 1×PBS solution. The nanoparticles were washed using Amicon filter (100k cut-off) twice and resuspended in PBS. Drug loading in nanoparticle formulation was determined by HPLC with a WATERS™ T3 column. Acetonitrile/water was used as the mobile phase, and the wavelength of the UV detector was set at 281 nm.
EE is equal to mass of drug (mg) after wash/mass of drug input (i.e., 2.5 mg) *100%. With EE calculated as such, an EE of over 100% may be obtained on certain occasions due to standard error within the analytical measurement and represents complete encapsulation (i.e., 100% EE).

The nature of data set [2]: Drug loading and encapsulation efficiency of drug loaded PNPs comprising pGlu(0.6C10)-PEG (HPLC). The format is physicochemical. To be noted: 5 mg drug. The text has this: To assess the ability of pGlu(0.6C10)-PEG to load positively charged antibiotics in the form of PNPs, we selected vancomycin and RV94 as the antibiotic drug payload in a first study (study 1) (Table 5), and additionally included oritavancin and RV40 as the antibiotic drug payload in a second study (study 2) (Table 6). The polymers we used for loading and encapsulating the antibiotics were PLA-PEG (A) (Nanosoft Polymers, SKU: 2693), pGlu-PEG (B) (Nanosoft Polymers, SKU: 2917), and pGlu(0.6C10)-PEG (C) (FIG. 10).
We prepared the drug loaded PNPs by using 20 mg of polymers and 5 mg of drug (FIG. 10). Specifically, polymers (20 mg) and drug (5 mg) were dissolve in 1 ml organic solvent mixture (DMSO: acetonitrile=1:1). The solution was injected into 20 ml deionized water stirred with a magnetic stirring bar. The nanoparticles were washed using Amicon filter (100k cut-off) twice and resuspended in deionized water. Drug loading in nanoparticle formulation was determined by HPLC with a WATERS™ T3 column. Acetonitrile/water was used as the mobile phase, and the wavelength of the UV detector was set at 281 nm.
Drug loading is equal to mass of drug (mg) after wash/(mass of drug (mg) after wash+mass of polymer input (i.e., 20 mg))*100%.
EE is equal to mass of drug (mg) after wash/mass of drug input (i.e., 5 mg)*100%.

Data set [3] in a line: Pharmacokinetic study of oritavancin-loaded PNPs in rat osteomyelitis model (plasma and tibia, LC-MS/MS). To be noted: osteomyelitis rats, 6 mg/kg intravenous. In kind it is in vivo. The text has this:
A rat model of bacterial osteomyelitis of the tibia was generated via intraosseous injection of MRSA ATCC 43300 at a target challenge dose of 7 log10 CFU of the bacteria per rat. Briefly, rats were anaesthetized by isoflurane and the infection was initiated via injection of the bacteria through the upper condyle of the right tibia into the cancellous bone marrow of a rat. The inoculation was made on the anterior surface of the tibia. The area was located by running a ½ inch 27-gauge needle against the skin, along the anterior crest of the tibia. The needle slipped over the tip of the tuberosity, which was located between the medial and lateral condyles. A rough depression could be felt with the tip of the needle. The patella tendon (silver in color) connected at this point. Once identified, the needle was pushed into the metaphysis using slight pressure and rotating motion. The needle was removed and replaced with a new ½ inch 27 gauge needle, and 30 μL of bacteria was inoculated into the bone marrow cavity. The needle was removed and the animal was allowed to recover from anesthesia.
Three weeks (21 days) after the initiation of the bacterial infection, the osteomyelitis rats were divided into three treatment groups, with five rats in each group. […] The concentrations of oritavancin in the plasma and tibia samples were quantified using LC-MS/MS.

The mark [4] stands for this setting: PNP with PLA-PEG (A) 5 mg + pGlu (D) 5 mg.
The mark [5] stands for this setting: PNP with PLA-PEG (A) 5 mg + pGlu(0.6C10) (E) 5 mg.
Where [6] appears, read: PNP with PLA-PEG (A) as only polymer, 10 mg polymer.
The mark [7] stands for this setting: drug payload only, no polymer (N/A).
[8] abbreviates: study 2, PLA-PEG (A) 10 mg + pGlu(0.6C10)-PEG (C) 10 mg.
Where [9] appears, read: study 2, PLA-PEG (A) 10 mg + pGlu-PEG (B) 10 mg.
Setting [10] is: study 1, PLA-PEG (A) 10 mg + pGlu(0.6C10)-PEG (C) 10 mg.
Setting [11] is: study 1, PLA-PEG (A) 10 mg + pGlu-PEG (B) 10 mg.
The mark [12] stands for this setting: study 1, PLA-PEG (A) 20 mg only.

Regarding `CN[C@H](CC(C)C)C(=O)N[C@H]1C(=O)N[C@@H](CC(N)=O)C(=O)N[C@H]2C(=O)N[C@H]3C(=O)N[C@H](C(=O)N[C@H](C(=O)O)c4cc(O)cc(O)c4-c4cc3ccc4O)[C@H](O[C@H]3C[C@](C)(N)[C@@H](O)[C@H](C)O3)c3ccc(c(Cl)c3)Oc3cc2cc(c3O[C@@H]2O[C@H](CO)[C@@H](O)[C@H](O)[C@H]2O[C@H]2C[C@](C)(NCc3ccc(-c4ccc(Cl)cc4)cc3)[C@@H](O)[C@H](C)O2)Oc2ccc(cc2Cl)[C@H]1O` [Ori, oritavancin], the Drug loading in data set [1] (setting [4]) is on record as 8.7%; in data set [1] (setting [5]), 12.3%; in data set [1] (setting [6]), 2.3%; in data set [1] (setting [7]), 0.0%; in data set [2] (setting [8]) it was 13.4%; in data set [2] (setting [9]) it was 10.6%. For the same molecule, the “Encapsulation efficiency (EE)” value worked out at 39.3% in data set [1] (setting [4]); 39.3% in data set [1] (PNP with PLA-PEG (A) 5 mg + pGlu (D) 5 mg, listed as oritavancin); 60.6% in data set [1] (setting [5]); 60.6% in data set [1] (PNP with PLA-PEG (A) 5 mg + pGlu(0.6C10) (E) 5 mg, listed as oritavancin); 9.8% in data set [1] (setting [6]); 9.8% in data set [1] (PNP with PLA-PEG (A) as only polymer, 10 mg polymer, listed as oritavancin). Also, the “Encapsulation efficiency (EE)” value in data set [1] (setting [7]) came out at 0.0%; in data set [2] (setting [8]) it was 68.1%; in data set [2] (setting [9]), 41.0%. The “Accumulation of oritavancin in infected tibia compared to uninfected tibia” value in data set [3] (24 h post-injection) is given as “preferential accumulation of oritavancin in the infected tibia”. Besides, the “Plasma concentrations of oritavancin” value in data set [3] (up to 4 hours post-injection) was “comparable and lower plasma concentrations of oritavancin”.

Consider `CN[C@H](CC(C)C)C(=O)N[C@H]1C(=O)N[C@@H](CC(N)=O)C(=O)N[C@H]2C(=O)N[C@H]3C(=O)N[C@H](C(=O)N[C@H](C(=O)O)c4cc(O)cc(O)c4-c4cc3ccc4O)[C@H](O)c3ccc(c(Cl)c3)Oc3cc2cc(c3O[C@@H]2O[C@H](CO)[C@@H](O)[C@H](O)[C@H]2O[C@H]2C[C@](C)(N)[C@H](O)[C@H](C)O2)Oc2ccc(cc2Cl)[C@H]1O` [Vac, vancomycin], for which the Drug loading in data set [1] (setting [4]) is recorded as 0.0%; in data set [1] (setting [5]), 0.1%; in data set [1] (setting [6]), 0.0%; in data set [1] (setting [7]), 0.0%; in data set [2] (setting [10]) it was 2.7%; in data set [2] (setting [11]) it was 0.0%. The Drug loading in data set [2] (setting [12]) came to 0.0%; in data set [2] (setting [8]), 2.4%; in data set [2] (setting [9]) it was 0.0%. Moreover, the “Encapsulation efficiency (EE)” value in data set [1] (setting [4]) was determined as 0.1%; in data set [1] (PNP with PLA-PEG (A) 5 mg + pGlu (D) 5 mg, listed as vancomycin) it was 0.1%; in data set [1] (setting [5]), 0.5%; in data set [1] (PNP with PLA-PEG (A) 5 mg + pGlu(0.6C10) (E) 5 mg, listed as vancomycin), 0.5%; in data set [1] (setting [6]) it was 0.2%; in data set [1] (PNP with PLA-PEG (A) as only polymer, 10 mg polymer, listed as vancomycin), 0.2%. For the same molecule, the “Encapsulation efficiency (EE)” value in data set [1] (setting [7]) stood at 0.0%; in data set [2] (setting [10]) it was 18.6%; in data set [2] (setting [11]), 0.0%; in data set [2] (study 1, PLA-PEG (A) 10 mg + pGlu-PEG (B) 10 mg, listed as vancomycin), 0.0%; in data set [2] (setting [12]), 0.0%; in data set [2] (study 1, PLA-PEG (A) 20 mg only, listed as vancomycin), 0.0%. For the same molecule, the “Encapsulation efficiency (EE)” value was 9.8% in data set [2] (setting [8]) and 0.2% in data set [2] (setting [9]).

For `CCCCCCCCCCNCCNC1(C)CC(OC2C(Oc3c4cc5cc3Oc3ccc(cc3Cl)C(O)C(NC(=O)C(CC(C)C)NC)C(=O)NC(CC(N)=O)C(=O)NC5C(=O)NC3C(=O)NC(C(=O)CC(C(=O)O)c5cc(O)cc(O)c5-c5cc3ccc5O)C(O)c3ccc(c(Cl)c3)O4)OC(CO)C(O)C2O)OC(C)C1O` (stereo not shown) [RV40], the Drug loading amounted to 3.1% in data set [1] (setting [4]); 15.0% in data set [1] (setting [5]); 1.9% in data set [1] (setting [6]); 0.0% in data set [1] (setting [7]); 6.4% in data set [2] (setting [8]); 6.7% in data set [2] (setting [9]). In addition, the “Encapsulation efficiency (EE)” value in data set [1] (setting [4]) is given as 15.0%; in data set [1] (setting [5]), 100.7%; in data set [1] (setting [6]), 7.0%; in data set [1] (setting [7]) it was 0.0%; in data set [2] (setting [8]) it was 45.5%; in data set [2] (setting [9]), 33.2%.

As to `CCCCCCCCCCNC(=O)CNC1(C)CC(OC2C(Oc3c4cc5cc3Oc3ccc(cc3Cl)C(O)C3NC(=O)C(NC(=O)C5NC(=O)C(CC(N)=O)NC(=O)C(NC(=O)C(CC(C)C)NC)C(O)c5ccc(c(Cl)c5)O4)c4ccc(O)c(c4)-c4c(O)cc(O)cc4C(C(=O)O)NC3=O)OC(CO)C(O)C2O)OC(C)C1O` (stereo not shown) [RV94], the Drug loading in data set [1] (setting [4]) is 3.5%; in data set [1] (setting [5]) it was 20.9%; in data set [1] (setting [6]) it was 2.8%; in data set [1] (setting [7]), 1.3%; in data set [2] (setting [10]) it was 16.7%; in data set [2] (setting [11]) it was 13.6%. Moreover, the values for the Drug loading in data set [2] (setting [12]), in data set [2] (setting [8]) and in data set [2] (setting [9]) were 0.9%, 17.5% and 13.2%, respectively. Moreover, the “Encapsulation efficiency (EE)” value in data set [1] (setting [4]) was determined as 12.9%; in data set [1] (setting [5]), 107.2%; in data set [1] (setting [6]) it was 10.4%; in data set [1] (setting [7]), 4.2%; in data set [2] (setting [10]), 88.4%; in data set [2] (setting [11]) it was 70.1%. Besides, the “Encapsulation efficiency (EE)” value in data set [2] (setting [12]) is on record as 4.0%; in data set [2] (setting [8]) it was 92.7%; in data set [2] (setting [9]), 59.8%.
